Test results: patent publication US20230406860A1, “HETEROCYCLIC SPIRO COMPOUNDS AND METHODS OF USE” (AMGEN INC., priority 2020, published 2023)
pIC50: −log10 of the molar value. Read-outs that look alike come from different tables or passages of the source.

What was measured:
[1] = target: GDP-bound KRAS protein (aa 1-169), containing both G12C and C118A amino acid substitutions (Homo sapiens, UniProt P01116, C118A/G12C); assay: Coupled nucleotide exchange assay (SOS-mediated, AlphaScreen); type: biochemical
Chain of GDP-bound KRAS protein (aa 1-169), containing both G12C and C118A amino acid substitutions (P01116 1-169 isoform P01116-2 G12C/C118A): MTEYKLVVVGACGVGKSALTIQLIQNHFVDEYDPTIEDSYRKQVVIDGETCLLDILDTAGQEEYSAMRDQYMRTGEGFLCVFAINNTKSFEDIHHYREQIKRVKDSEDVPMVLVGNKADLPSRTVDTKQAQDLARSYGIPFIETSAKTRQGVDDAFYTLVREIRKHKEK
Protocol: Coupled Nucleotide Exchange Assay:
For all subsequent steps, DTT was added to the reaction buffer at a final concentration of 1 mM. […] The assay plates were then read on a plate reader measuring luminescence signal. Signal intensity of compound-containing wells were normalized to DMSO control, and data were analyzed using a 4-parameter logistic model to calculate IC50 values.

[2] = test system: MIA PaCa-2 (human pancreatic carcinoma) cells; assay: Cell viability assay (CellTiter-Glo), MIA PaCa-2; type: cell-based; conditions: 72 h
Protocol: (§1) MIA PaCa-2 (human pancreatic carcinoma; ATCC CRL-1420) or A549 (human lung carcinoma; ATCC CCL-185) cells were cultured in RPMI 1640 medium containing 10% fetal bovine serum and 1× penicillin/streptomycin/L-glutamine. Cells were seeded in 384-well plates at a density of 1.67E+04 cells/mL and incubated at 37° C., 5% CO2, overnight. Serially-diluted compound or DMSO was added to the cells, and plates were incubated at 37° C., 5% CO2 for 72 h. Cell viability was measured using a CellTiter-Glo® Luminescent Cell Viability Assay kit (Promega) according to the manufacturer's protocol. The luminescence signal of treated samples was normalized to DMSO control, and data were analyzed using a 4-parameter logistic model to calculate IC50 values.

[3] = test system: A549 (human lung carcinoma) cells; assay: Cell viability assay (CellTiter-Glo), A549; type: cell-based; conditions: 72 h
Protocol: as §1

[4] = 2 h compound pre-incubation, read-out: Avg 2 h Coupled exchange IC50
[5] = 20 h compound pre-incubation (values marked * in Table 6), read-out: Avg 20 h Coupled exchange IC50

`C=CC(=O)N1CC2(CCN(c3nc(N[C@H](CC(=O)NC)CC(C)C)c4ccc(-c5nccs5)cc4n3)C2)C1` [Example 1-59, (3S)-N,5-dimethyl-3-((2-(2-(2-propenoyl)-2,6-diazaspiro[3.4]octan-6-yl)-7-(1,3-thiazol-2-yl)-4-quinazolinyl)amino)hexanamide] was tested, and the pIC50 [1, 4] was 8.00, the pIC50 [2] was 7.80 and the pIC50 [3] was 5.10.
For `C=CC(=O)N1CC2(CCN(c3nc(N[C@H](CC(=O)NC)CC(C)C)c4ncc(-c5nccs5)cc4n3)C2)C1` [Example 1-36, (3S)-N,5-dimethyl-3-((2-(2-(2-propenoyl)-2,6-diazaspiro[3.4]octan-6-yl)-7-(1,3-thiazol-2-yl)pyrido[3,2-d]pyrimidin-4-yl)amino)hexanamide], the pIC50 [1, 4] was 7.64, the pIC50 [2] was 6.42 and the pIC50 [3] was < 5.30.
`C=CC(=O)N1CC2(C1)CN(c1nc3c(c(N[C@H](CC(=O)NC)CC(C)C)n1)CCC(C)C3)CC2(F)F` (stereo partly drawn) [Example 1-2, (3S)-3-((2-(8,8-difluoro-2-(2-propenoyl)-2,6-diazaspiro[3.4]octan-6-yl)-7-methyl-5,6,7,8-tetrahydro-4-quinazolinyl)amino)-N,5-dimethylhexanamide] was tested, and the pIC50 [1, 4] was 7.72, the pIC50 [2] was 7.33 and the pIC50 [3] was 4.82.
In the case of `C=CC(=O)N1CC2(CCN(c3nc(N[C@H](CC(=O)NC)CC(C)C)c4ccncc4n3)C2)C1` [Example 1-56], the pIC50 [1, 4] was 5.32, the pIC50 [2] was < 5.30 and the pIC50 [3] was < 4.60.
With `C=CC(=O)N1CC2(CCN(c3nc(N[C@H](CC(=O)NC)CC(C)C)c4ccn(C)c4n3)C2)C1` [Example 1-16, (3S)-N,5-dimethyl-3-((7-methyl-2-(2-(2-propenoyl)-2,6-diazaspiro[3.4]octan-6-yl)-7H-pyrrolo[2,3-d]pyrimidin-4-yl)amino)hexanamide] the pIC50 [1, 5] was 6.04, the pIC50 [2] was 5.34 and the pIC50 [3] was < 4.60.
In the case of `C=CC(=O)N1CC2(CCN(c3nc4c(c(N[C@H](Cc5ncco5)CC(C)C)n3)CCCC4)C2)C1` [Example 1-57, 1-(6-(4-(((2S)-4-methyl-1-(1,3-oxazol-2-yl)-2-pentanyl)amino)-5,6,7,8-tetrahydro-2-quinazolinyl)-2,6-diazaspiro[3.4]octan-2-yl)-2-propen-1-one], the pIC50 [1, 4] was 5.68, the pIC50 [2] was 5.60 and the pIC50 [3] was 4.75.
With `C=CC(=O)N1CC2(CCN(c3nc(N[C@H](CC(=O)NC)CC(C)C)c4c(n3)[C@H](C)CCC4)C2)C1` [Example 1-8, (3S)-N,5-dimethyl-3-(((8R)-8-methyl-2-(2-(2-propenoyl)-2,6-diazaspiro[3.4]octan-6-yl)-5,6,7,8-tetrahydro-4-quinazolinyl)amino)hexanamide] the pIC50 [1, 4] was 5.96, the pIC50 [2] was 6.00 and the pIC50 [3] was < 5.30.
With `C=CC(=O)N1CC2(CCN(c3nc(N[C@H](CC(=O)NC)CC(C)C)c4ccc(C#N)cc4n3)C2)C1` [Example 1-26, (3S)-3-((7-cyano-2-(2-(2-propenoyl)-2,6-diazaspiro[3.4]octan-6-yl)-4-quinazolinyl)amino)-N,5-dimethylhexanamide] the pIC50 [1, 4] was 6.74, the pIC50 [2] was 6.73 and the pIC50 [3] was < 4.60.
With `C=CC(=O)N1CC2(CCN(c3nc4c(c(N[C@H](Cc5nnc[nH]5)CC(C)C)n3)CCCC4)C2)C1` [Example 1-19, 1-(6-(4-(((2S)-4-methyl-1-(4H-1,2,4-triazol-3-yl)-2-pentanyl)amino)-5,6,7,8-tetrahydro-2-quinazolinyl)-2,6-diazaspiro[3.4]octan-2-yl)-2-propen-1-one] the pIC50 [1, 4] was 5.38, the pIC50 [2] was < 5.30 and the pIC50 [3] was < 5.30.
`C=CC(=O)N1CC2(C[C@@H](CO)N(c3nc4c(c(N[C@H](CC(=O)NC)CC(C)C)n3)CCCC4)C2)C1` (single isomer, unassigned) [Example 1-24-2] was tested, and the IC50 [1, 4] was 59.1 µM, the pIC50 [2] was < 4.60 and the pIC50 [3] was < 4.60.
For `C=CC(=O)N1CC2(CCN(c3nc(N[C@H](CC(=O)NC)CC(C)C)c4ncsc4n3)C2)C1` [Example 1-11, (3S)-N,5-dimethyl-3-((5-(2-(2-propenoyl)-2,6-diazaspiro[3.4]octan-6-yl)[1,3]thiazolo[5,4-d]pyrimidin-7-yl)amino)hexanamide], the pIC50 [1, 5] was 6.40, the pIC50 [2] was < 5.30 and the pIC50 [3] was < 5.30.
For `C=CC(=O)N1CC2(CCN(c3nc4c(c(N[C@H](CC(=O)NC)CC(C)C)n3)CCCC4)C2)C1` [Example 1-1, (S)-3-((2-(2-acryloyl-2,6-diazaspiro[3.4]octan-6-yl)-5,6,7,8-tetrahydroquinazolin-4-yl)amino)-N,5-dimethylhexanamide], the pIC50 [1, 4] was 6.15, the pIC50 [2] was 6.05 and the pIC50 [3] was < 4.60.
`C=CC(=O)N1CC2(CCN(c3nc(N[C@H](CC(=O)NC)CC(C)C)c4ncn(C)c4n3)C2)C1` [Example 1-17, (3S)-N,5-dimethyl-3-((9-methyl-2-(2-(2-propenoyl)-2,6-diazaspiro[3.4]octan-6-yl)-9H-purin-6-yl)amino)hexanamide] was tested, and the pIC50 [1, 4] was 5.06, the pIC50 [2] was 5.61 and the pIC50 [3] was < 4.60.
For `C=CC(=O)N1CC2(C1)CN(c1nc3c(c(N[C@H](CC(=O)NC)CC(C)C)n1)CCC(C)C3)CC2F` (stereo partly drawn) [Example 1-28, (3S)-3-((2-(8-fluoro-2-(2-propenoyl)-2,6-diazaspiro[3.4]octan-6-yl)-7-methyl-5,6,7,8-tetrahydro-4-quinazolinyl)amino)-N,5-dimethylhexanamide], the pIC50 [1, 4] was 6.71, the pIC50 [2] was 6.72 and the pIC50 [3] was < 5.30.
For `C=CC(=O)N1CC2(CCN(c3nc(N[C@H](CC(=O)NC)CC(C)C)c4c(ncn4C)n3)C2)C1` [Example 1-14, (3S)-N,5-dimethyl-3-((7-methyl-2-(2-(2-propenoyl)-2,6-diazaspiro[3.4]octan-6-yl)-7H-purin-6-yl)amino)hexanamide], the pIC50 [1, 4] was 3.71, the pIC50 [2] was < 4.60 and the pIC50 [3] was < 4.60.
For `C=CC(=O)N1CC2(CCN(c3nc4c(c(N[C@H](CC(=O)NC)CC(C)C)n3)CN(C(C)=O)C4)C2)C1` [Example 1-9, (3S)-3-((6-acetyl-2-(2-(2-propenoyl)-2,6-diazaspiro[3.4]octan-6-yl)-6,7-dihydro-5H-pyrrolo[3,4-d]pyrimidin-4-yl)amino)-N,5-dimethylhexanamide], the pIC50 [1, 5] was 6.33, the pIC50 [2] was < 5.30 and the pIC50 [3] was < 5.30.
With `C=CC(=O)N1CC2(CCN(c3nc(N[C@H](CC(=O)NC)CC(C)C)c4ncc(C)cc4n3)C2)C1` [Example 1-34, (3S)-N,5-dimethyl-3-((7-methyl-2-(2-(2-propenoyl)-2,6-diazaspiro[3.4]octan-6-yl)pyrido[3,2-d]pyrimidin-4-yl)amino)hexanamide] the pIC50 [1, 4] was 6.43, the pIC50 [2] was 6.66 and the pIC50 [3] was < 4.60.
`C=CC(=O)N1CC2(CCN(c3nc(N[C@H](CC(=O)NC)CC(C)C)c4ccccc4n3)C2)C1` [Example 1-5, (3S)-N,5-dimethyl-3-((2-(2-(2-propenoyl)-2,6-diazaspiro[3.4]octan-6-yl)-4-quinazolinyl)amino)hexanamide] was tested, and the pIC50 [1, 4] was 5.96, the pIC50 [2] was 5.91 and the pIC50 [3] was 4.74.
With `C=CC(=O)N1CC2(CCN(c3nc(N[C@H](CC(=O)NC)CC(C)C)c4ccc(C)cc4n3)C2)C1` [Example 1-25, (3S)-N,5-dimethyl-3-((7-methyl-2-(2-(2-propenoyl)-2,6-diazaspiro[3.4]octan-6-yl)-4-quinazolinyl)amino)hexanamide] the pIC50 [1, 4] was 6.47, the pIC50 [2] was 6.04 and the pIC50 [3] was < 5.30.
In the case of `C=CC(=O)N1CC2(CCN(c3nc(N[C@H](CC(=O)NC)CC(C)C)c4c(n3)[C@@H](C)CCC4)C2)C1` [Example 1-15, (3S)-N,5-dimethyl-3-(((8S)-8-methyl-2-(2-(2-propenoyl)-2,6-diazaspiro[3.4]octan-6-yl)-5,6,7,8-tetrahydro-4-quinazolinyl)amino)hexanamide], the pIC50 [1, 4] was 5.35, the pIC50 [2] was 5.65 and the pIC50 [3] was < 5.30.
In the case of `C=CC(=O)N1CC2(CCN(c3nc4c(c(N[C@@H](CC(C)C)Cn5ccnn5)n3)CCC(C)(C)C4)C2)C1` [Example 1-47, 1-(6-(7,7-dimethyl-4-(((2S)-4-methyl-1-(1H-1,2,3-triazol-1-yl)-2-pentanyl)amino)-5,6,7,8-tetrahydro-2H-quinazolinyl)-2,6-diazaspiro[3.4]octan-2-yl)-2-propen-1-one], the pIC50 [2] was 6.31 and the pIC50 [3] was 4.85.
Work on `C=CC(=O)N1CC2(CCN(c3nc(N[C@H](CC(=O)NC)CC(C)C)c4ccc(Cl)cc4n3)C2)C1` [Example 1-30, (3S)-3-((7-chloro-2-(2-(2-propenoyl)-2,6-diazaspiro[3.4]octan-6-yl)-4-quinazolinyl)amino)-N,5-dimethylhexanamide] yielded a pIC50 [1, 4] of 6.58, a pIC50 [2] of 6.95 and a pIC50 [3] of 4.84.
For `C=CC(=O)N1CC2(CCN(c3nc4c(c(N[C@H](Cc5cc(C)no5)CC(C)C)n3)CCC(C)(C)C4)C2)C1` [Example 1-49, 1-(6-(7,7-dimethyl-4-(((2S)-4-methyl-1-(3-methyl-1,2-oxazol-5-yl)-2-pentanyl)amino)-5,6,7,8-tetrahydro-2-quinazolinyl)-2,6-diazaspiro[3.4]octan-2-yl)-2-propen-1-one], the IC50 [1, 4] was 0.093 µM, the pIC50 [2] was 6.66 and the pIC50 [3] was 4.94.
With `C=CC(=O)N1CC2(CCN(c3nc4c(c(N[C@H](CC(=O)NC)CC(C)C)n3)CCC(C)(C)C4)C2)C1` [Example 1-29, (3S)-3-((7,7-dimethyl-2-(2-(2-propenoyl)-2,6-diazaspiro[3.4]octan-6-yl)-5,6,7,8-tetrahydro-4-quinazolinyl)amino)-N,5-dimethylhexanamide] the pIC50 [2] was 7.51 and the pIC50 [3] was < 4.60.
